Our source for the IC50 values is patent US20100292214A1, “Compounds with Antiparasitic Activity, Applications thereof to the Treatment of Infectious Diseases Caused by Apicomplexans” (commissariat a l'Energie Atomique, priority 2007, published 2010).

For assay [1], the system named is Toxoplasma gondii RH-β1 strain. Description: microbe, parasite or virus in culture. It counts as cell-based. Conditions: Toxoplasma gondii, read-out: IC50 assessed on Toxoplama Gondii.
Assay [2] deals with asynchronous 3D7 chloroquine-sensitive P. falciparum infected red blood cells. The experiment in a line: Labeled hypoxanthine incorporation assay (in vitro anti-malarial activity). In kind it is cell-based. Conditions: Plasmodium falciparum, 3D7, Erythrocyte, read-out: IC50 assessed on Plasmodium Falciparum.
Where [3] appears, read: 3D7 chloroquine-sensitive strain, infected RBC, 48 h contact, [3H]-hypoxanthine incorporation, two independent experiments in duplicates.

What is called IC50 is the midpoint of a concentration-inhibition curve.

Where a name gives a salt, the structure may show the parent alone. Read-outs that look alike come from different tables or passages of the source.

For the compound `C[C@@H](COC(=O)N1CCC(n2c(=O)[nH]c3ccccc32)CC1)N(Cc1ccccc1)Cc1cccc(OCc2ccccc2)c1` [Compound 136, (S)-2-(benzyl(3-(benzyloxy)benzyl)amino)propyl 4-(2-oxo-2,3-dihydro-1H-benzo[d]imidazol-1-yl)piperidine-1-carboxylate hydrochloride], the IC50 in assay [1] came to 800 nM; in assay [2] (setting [3]), 1600 nM.
The matching figures for `C[C@@H](COC(=O)N1CCC(n2c(=O)[nH]c3ccccc32)CC1)N(Cc1ccccc1)Cc1cc2ccccc2c2ccccc12` [Compound 137, (S)-2-(benzyl(phenanthren-9-ylmethyl)amino)propyl 4-(2-oxo-2,3-dihydro-1H-benzo[d]imidazol-1-yl)piperidine-1-carboxylate hydrochloride]: 700 nM and 1610 nM.
As to `C[C@@H](COC(=O)N1CCC(n2c(=O)[nH]c3ccccc32)CC1)N(Cc1ccccc1)Cc1cccc2ccccc12` [Compound 138, (S)-2-(benzyl(naphthalen-1-ylmethyl)amino)propyl 4-(2-oxo-2,3-dihydro-1H-benzo[d]imidazol-1-yl)piperidine-1-carboxylate hydrochloride], the IC50 in assay [1] was 3750 nM; in assay [2] (setting [3]) it was 2550 nM.
The matching figures for `C[C@@H](COC(=O)N1CCC(n2c(=O)[nH]c3ccccc32)CC1)N(Cc1ccccc1)Cc1cccs1` [Compound 139, (S)-2-(benzyl(thiophen-2-ylmethyl)amino)propyl 4-(2-oxo-2,3-dihydro-1H-benzo[d]imidazol-1-yl)piperidine-1-carboxylate hydrochloride]: 5000 nM and 3410 nM.
The matching figures for `C[C@@H](COC(=O)N1CCC(n2c(=O)[nH]c3ccccc32)CC1)N(Cc1ccccc1)Cc1ccccn1` [Compound 140, (S)-2-(benzyl(pyridin-2-ylmethyl)amino)propyl 4-(2-oxo-2,3-dihydro-1H-benzo[d]imidazol-1-yl)piperidine-1-carboxylate hydrochloride]: 1800 nM and 3860 nM.
The matching figures for `O=C(OCCCN(Cc1ccccc1)Cc1cccs1)N1CCC(n2c(=O)[nH]c3ccccc32)CC1` [Compound 141, 3-(benzyl(thiophen-2-ylmethyl)amino)propyl 4-(2-oxo-2,3-dihydro-1H-benzo[d]imidazol-1-yl)piperidine-1-carboxylate hydrochloride]: 4000 nM and 4170 nM.
As to `O=C(OCCCN(Cc1ccccc1)Cc1cccc(Cl)c1)N1CCC(n2c(=O)[nH]c3ccccc32)CC1` [Compound 142, 3-(benzyl(3-chlorobenzyl)amino)propyl 4-(2-oxo-2,3-dihydro-1H-benzo[d]imidazol-1-yl)piperidine-1-carboxylate hydrochloride], the half-maximal inhibitory concentration (IC50) in assay [1] was 1200 nM; in assay [2] (setting [3]), 2920 nM.
The matching figures for `O=C(OCCCN(Cc1ccccc1)Cc1cccc2ccccc12)N1CCC(n2c(=O)[nH]c3ccccc32)CC1` [Compound 144, 3-(benzyl(naphthalen-1-ylmethyl)amino)propyl 4-(2-oxo-2,3-dihydro-1H-benzo[d]imidazol-1-yl)piperidine-1-carboxylate hydrochloride]: 2700 nM and 3240 nM.
The matching figures for `O=C(OCCCN(Cc1ccccc1)Cc1ccnc2ccccc12)N1CCC(n2c(=O)[nH]c3ccccc32)CC1` [Compound 145, 3-(benzyl(quinolin-4-ylmethyl)amino)propyl 4-(2-oxo-2,3-dihydro-1H-benzo[d]imidazol-1-yl)piperidine-1-carboxylate hydrochloride]: 3300 nM and 731 nM.
The matching figures for `O=C(OCCCN(Cc1ccccc1)Cc1cccc(Oc2ccccc2)c1)N1CCC(n2c(=O)[nH]c3ccccc32)CC1` [Compound 146, 3-(benzyl(3-phenoxybenzyl)amino)propyl 4-(2-oxo-2,3-dihydro-1H-benzo[d]imidazol-1-yl)piperidine-1-carboxylate hydrochloride]: 1500 nM and 1960 nM.
Regarding `COc1cccc(CN(CCCOC(=O)N2CCC(n3c(=O)[nH]c4ccccc43)CC2)Cc2ccccc2)c1` [Compound 149, 3-(benzyl(3-methoxybenzyl)amino)propyl 4-(2-oxo-2,3-dihydro-1H-benzo[d]imidazol-1-yl)piperidine-1-carboxylate hydrochloride], the results for the IC50 in assay [1] and in assay [2] (setting [3]) were 3500 nM and 588 nM, respectively.
The matching figures for `O=C(OCCN(Cc1ccccc1)Cc1ccc(Cl)cc1)N1CCC(n2c(=O)[nH]c3ccccc32)CC1` [Compound 150, 2-(benzyl(4-chlorobenzyl)amino)ethyl 4-(2-oxo-2,3-dihydro-1H-benzo[d]imidazol-1-yl)piperidine-1-carboxylate]: 1500 nM and 2590 nM.
For the compound `O=C(OC[C@H](Cc1ccccc1)N(Cc1ccccc1)Cc1ccccc1)N1CCC(Nc2ccccc2)CC1` [Compound 152, (S)-2-(dibenzylamino)-3-phenylpropyl 4-(phenylamino)piperidine-1-carboxylate], the IC50 is 3800 nM in assay [1] and 922 nM in assay [2].
On to `C[C@@H](COC(=O)N1CCC(n2c(-c3ccccc3)nc3ccccc32)CC1)N(Cc1ccccc1)Cc1ccccc1` [Compound 153, (S)-2-(dibenzylamino)propyl 4-(2-phenyl-1H-benzo[d]imidazol-1-yl)piperidine-1-carboxylate], for which the 50% inhibitory concentration (IC50) in assay [1] worked out at 3750 nM; in assay [2] (setting [3]) it was 2330 nM.
As for `C[C@@H](COC(=O)N1CCC(N(c2ccccc2)S(=O)(=O)c2ccc(F)cc2)CC1)N(Cc1ccccc1)Cc1ccccc1` [Compound 155, (S)-2-(dibenzylamino)propyl 4-(N-phenyl-4-fluorophenylsulfonamido)piperidine-1-carboxylate], the values for the IC50 in assay [1] and in assay [2] (setting [3]) were 800 nM and 617 nM, respectively.
The matching figures for `COc1ccc(S(=O)(=O)N(c2ccccc2)C2CCN(C(=O)OC[C@H](C)N(Cc3ccccc3)Cc3ccccc3)CC2)cc1` [Compound 156, (S)-2-(dibenzylamino)propyl 4-(N-phenyl-4-methoxyphenylsulfonamido)piperidine-1-carboxylate]: 4000 nM and 783 nM.
`C[C@@H](COC(=O)N1CCC(N(c2ccccc2)S(=O)(=O)c2cccs2)CC1)N(Cc1ccccc1)Cc1ccccc1` [Compound 159, (S)-2-(dibenzylamino)propyl 4-(N-phenylthiophen-2-ylsulfonamido)piperidine-1-carboxylate]: the half-inhibitory concentration (IC50) in assay [1] stood at 1000 nM; in assay [2] (setting [3]), 861 nM.
The matching figures for `C[C@@H](COC(=O)N1CCC(N(c2ccccc2)S(=O)(=O)c2cccc3cccnc23)CC1)N(Cc1ccccc1)Cc1ccccc1` [Compound 160, (S)-2-(dibenzylamino)propyl 4-(N-phenylquinolin-8-ylsulfonamido)piperidine-1-carboxylate]: 2700 nM and 1060 nM.
The matching figures for `C[C@@H](COC(=O)N1CCC(N(C(=S)Nc2ccccc2)c2ccccc2)CC1)N(Cc1ccccc1)Cc1ccccc1` [Compound 165, (S)-2-(dibenzylamino)propyl 4-(1,3-diphenylthioureido)piperidine-1-carboxylate]: 3000 nM and 1250 nM.
